Data as given in PubChem BioAssay (NCI).
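Dose response: 5 concentrations. Exposure: 48 h. Format: 96-well plates. Endpoint: linear interpolation; highest concentration if not reached. GI50 is the concentration that inhibits growth by half. TGI denotes the concentration required for complete inhibition of growth.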

Legend:
Assay in all cases: inhibition of tumour cell growth, NCI panel, 48 h
DMS 114 small cell lung = test system: DMS 114 small cell lung
DMS 273 small cell lung = test system: DMS 273 small cell lung
HOP-18 NSCLC = test system: HOP-18 NSCLC
RXF-631 renal = test system: RXF-631 renal
XF 498 CNS = test system: XF 498 CNS
MDA-N = test system: MDA-N
M19-MEL melanoma = test system: M19-MEL melanoma

O=C(O)CCC(NC(=O)c1ccccc1)C(=O)O (configuration not stated)
TGI (DMS 114 small cell lung): > 100 µM | TGI (DMS 273 small cell lung): > 100 µM | TGI (HOP-18 NSCLC): > 100 µM | TGI (RXF-631 renal): > 100 µM | TGI (XF 498 CNS): > 100 µM

COc1ccc(C(=O)/C=C/c2ccc3c(c2)OCO3)c(OCc2ccccc2)c1
TGI (MDA-N): > 100 µM

COC(=O)[C@]12CC=C3O[C@@H]4OC5(CCCCC5)O[C@@H]4C3[C@@H]1C(=O)CCC2=O (some centres not stated)
TGI (DMS 114 small cell lung): > 100 µM | TGI (DMS 273 small cell lung): > 100 µM | TGI (HOP-18 NSCLC): > 100 µM | TGI (RXF-631 renal): > 100 µM | TGI (XF 498 CNS): > 100 µM

Cc1c(C(=O)CC(=O)C(=O)Nc2ccc(Cl)cc2)[n+](=O)c2ccccc2n1[O-]
TGI (DMS 114 small cell lung): > 100 µM | TGI (DMS 273 small cell lung): > 100 µM | TGI (HOP-18 NSCLC): > 100 µM | TGI (M19-MEL melanoma): > 100 µM | TGI (XF 498 CNS): > 100 µM

CN(C)C=[N+]=[N-]
TGI (DMS 114 small cell lung): > 100 µM | TGI (DMS 273 small cell lung): > 100 µM | TGI (HOP-18 NSCLC): > 100 µM | TGI (M19-MEL melanoma): > 100 µM | TGI (XF 498 CNS): > 100 µM

C/C=C1/CCC2c3[nH]c4ccccc4c3CCN2C1 (configuration not stated)
TGI (DMS 114 small cell lung): > 100 µM | TGI (DMS 273 small cell lung): > 100 µM | TGI (M19-MEL melanoma): > 100 µM | TGI (XF 498 CNS): > 100 µM

CC(C)c1c(O)ccc2c1CCC1C(C)(C)CCCC21C (configuration not stated)
TGI (MDA-N): 32.3 µM

COc1ccc(CC(=O)NCCc2ccc(OC)c(OC)c2)cc1Br
TGI (DMS 114 small cell lung): > 100 µM | TGI (DMS 273 small cell lung): > 100 µM | TGI (XF 498 CNS): > 100 µM

CC1=NN(C(=O)CC(=O)NC(=O)CC(=O)Nc2ccccc2F)C(=O)C1N=Nc1ccc([N+](=O)[O-])cc1 (configuration not stated)
TGI (DMS 114 small cell lung): 41 µM | TGI (DMS 273 small cell lung): > 100 µM | TGI (HOP-18 NSCLC): > 100 µM | TGI (M19-MEL melanoma): 92.8 µM | TGI (RXF-631 renal): > 100 µM | TGI (XF 498 CNS): 70.9 µM

O=C(NCCCCCCNC(=O)OCCSCCn1cc(C(=O)NC(=O)OCc2ccccc2)c(=O)[nH]c1=O)OCCSCCn1cc(C(=O)NC(=O)OCc2ccccc2)c(=O)[nH]c1=O
TGI (DMS 114 small cell lung): > 100 µM | TGI (DMS 273 small cell lung): > 100 µM | TGI (M19-MEL melanoma): > 100 µM | TGI (RXF-631 renal): > 100 µM | TGI (XF 498 CNS): > 100 µM

CC(=O)OCC(=O)[C@@]12OC(C)(C)O[C@@H]1C[C@H]1[C@@H]3CC=C4C[C@@H](O)CC[C@]4(C)[C@H]3CC[C@@]12C
TGI (MDA-N): > 100 µM

CN1C(=O)C(CC(=O)O)NC1=S (configuration not stated)
TGI (MDA-N): > 100 µM

O=C(O)CCSC(=O)Nc1ccccc1F
TGI (DMS 114 small cell lung): > 100 µM | TGI (DMS 273 small cell lung): > 100 µM

CCCC/C=C1\CCC(C)(CN(C)C)C1=O (configuration not stated)
TGI (DMS 114 small cell lung): > 100 µM | TGI (HOP-18 NSCLC): > 100 µM | TGI (M19-MEL melanoma): 29 µM

COc1ccc(S(=O)(=O)N/N=C/c2cc(I)cc([N+](=O)[O-])c2O)cc1OC
TGI (DMS 273 small cell lung): > 100 µM | TGI (HOP-18 NSCLC): 68.5 µM | TGI (M19-MEL melanoma): 99.2 µM | TGI (RXF-631 renal): > 100 µM | TGI (XF 498 CNS): 51.1 µM

O=C1C2C(c3ccccc3)NC(c3ccccc3)C1C(c1ccccc1)NC2c1ccccc1 (configuration not stated)
TGI (MDA-N): > 100 µM

COC(=O)NN=C1C(C)(C)C(=O)C1(C)C
TGI (DMS 273 small cell lung): > 100 µM | TGI (RXF-631 renal): > 100 µM | TGI (XF 498 CNS): > 100 µM

Cc1[nH]c(=O)n2c(C)nnc2c1C(=O)Nc1cc(Cl)cc(Cl)c1
TGI (M19-MEL melanoma): 91.9 µM

CN(C)CCNC(=O)c1cccc2[nH]c(-c3cccnc3)nc12
TGI (DMS 273 small cell lung): 74.4 µM | TGI (HOP-18 NSCLC): 84 µM | TGI (M19-MEL melanoma): 39.8 µM

O=[N+]([O-])c1cc(C2SCc3nc4ccccc4n32)ccc1Cl (configuration not stated)
TGI (DMS 114 small cell lung): 54.3 µM | TGI (DMS 273 small cell lung): 58 µM | TGI (HOP-18 NSCLC): > 100 µM | TGI (M19-MEL melanoma): 53.9 µM

C=C1C(=O)OC2C=C(CCC(C)=O)C(C)C(OC(C)=O)CC12 (configuration not stated)
TGI (HOP-18 NSCLC): 24.1 µM | TGI (M19-MEL melanoma): 64.7 µM | TGI (XF 498 CNS): 26.1 µM

O=c1oc2cc(N=Cc3ccc4c(c3)OCO4)ccc2c2ccccc12
TGI (MDA-N): > 100 µM

CCN(CC)CCn1c2ccccc2c(=O)c2c(O)ccc(O)c21
TGI (DMS 114 small cell lung): 41 µM | TGI (DMS 273 small cell lung): > 100 µM | TGI (MDA-N): 34.4 µM | TGI (RXF-631 renal): > 66.8 µM | TGI (XF 498 CNS): 44.2 µM

Fc1ccccc1C1SCc2nc3ccccc3n21 (configuration not stated)
TGI (DMS 114 small cell lung): > 100 µM | TGI (DMS 273 small cell lung): > 100 µM | TGI (M19-MEL melanoma): > 100 µM | TGI (RXF-631 renal): > 100 µM

c1ccc2cc3[s+]snc3cc2c1
TGI (DMS 273 small cell lung): > 100 µM | TGI (HOP-18 NSCLC): > 100 µM | TGI (M19-MEL melanoma): > 100 µM | TGI (RXF-631 renal): > 100 µM | TGI (XF 498 CNS): > 100 µM

C=C1C(=O)O[C@H]2[C@H](OC(C)=O)[C@@H](C)CCC/C(C)=C/CC[C@@]3(C)O[C@@H]3C[C@@H]12
TGI (MDA-N): 10.6 µM

Nc1c([N+](=O)[O-])cc2c3c(cccc13)CC2
TGI (MDA-N): > 100 µM

O=C(c1ccccc1)[C@@H]1C[C@H](Sc2ccccc2)c2cc(Cl)ccc2N1
TGI (DMS 114 small cell lung): 82.6 µM | TGI (DMS 273 small cell lung): 84 µM | TGI (HOP-18 NSCLC): > 100 µM | TGI (M19-MEL melanoma): > 100 µM | TGI (RXF-631 renal): 83.1 µM | TGI (XF 498 CNS): 46.9 µM

C[N+]1(C)C/C(=C\c2ccccc2)C(=O)/C(=C/c2ccccc2)C1
TGI (DMS 114 small cell lung): > 100 µM | TGI (DMS 273 small cell lung): > 100 µM | TGI (HOP-18 NSCLC): > 100 µM | TGI (M19-MEL melanoma): > 100 µM | TGI (RXF-631 renal): > 100 µM | TGI (XF 498 CNS): > 100 µM

Cc1cc(NS(=O)(=O)c2ccc(NC(=O)c3ccc(Cl)c4c(Nc5ccc(S(=O)(=O)N=C(N)N)cc5)c5ccccc5nc34)cc2)no1
TGI (DMS 114 small cell lung): > 100 µM | TGI (M19-MEL melanoma): > 100 µM | TGI (XF 498 CNS): 98.8 µM

CNC(=O)CC1NC(=O)c2csc(n2)-c2ccc(-c3nc(C4=NC(C(=O)N5CCCC5C(N)=O)CO4)cs3)nc2-c2csc(n2)-c2csc(n2)C(C(C)C)NC(=O)CNC(=O)c2csc(n2)C(C(C)C)NC(=O)c2nc1sc2C (configuration not stated)
GI50 (MDA-N): < 0.001 µM

CN1CC[C@]2(C)c3cc(O)ccc3CC3CCCC1C32C (some centres not stated)
TGI (DMS 114 small cell lung): > 100 µM | TGI (HOP-18 NSCLC): > 100 µM | TGI (M19-MEL melanoma): > 100 µM | TGI (RXF-631 renal): > 100 µM | TGI (XF 498 CNS): > 100 µM

COc1cc(C(O)C(=O)c2nc3ccc([N+](=O)[O-])cc3[nH]c2=O)ccc1O (configuration not stated)
TGI (DMS 114 small cell lung): > 100 µM | TGI (DMS 273 small cell lung): > 100 µM | TGI (M19-MEL melanoma): > 100 µM | TGI (XF 498 CNS): > 100 µM

Cc1ccc(NC(=O)C(=O)CC(=O)c2c(C)n([O-])c3ccccc3[n+]2=O)cc1
TGI (DMS 114 small cell lung): 38.5 µM | TGI (DMS 273 small cell lung): 59.6 µM | TGI (HOP-18 NSCLC): > 100 µM | TGI (M19-MEL melanoma): 36.1 µM | TGI (RXF-631 renal): > 100 µM

O=C1C2C=CC(C2)C(c2ccc(O)cc2)N1O (configuration not stated)
TGI (M19-MEL melanoma): > 100 µM | TGI (XF 498 CNS): > 100 µM

CC(C)(CN1CCCCC1)C(=O)/C=C/c1ccc(Cl)cc1
TGI (DMS 114 small cell lung): 15.4 µM | TGI (DMS 273 small cell lung): 13.3 µM | TGI (HOP-18 NSCLC): 23.1 µM | TGI (M19-MEL melanoma): 23.4 µM | TGI (RXF-631 renal): 29.9 µM

Cc1cc(Cc2cc(C)cc(C(C)(C)C)c2O)c(O)c(Cc2cc(C)cc(C(C)(C)C)c2O)c1
TGI (MDA-N): 11.9 µM

O=c1nc(NC(c2ccccc2)(c2ccccc2)c2ccccc2)ccn1CCNCCn1ccc(NC(c2ccccc2)(c2ccccc2)c2ccccc2)nc1=O
TGI (DMS 114 small cell lung): 13.5 µM | TGI (DMS 273 small cell lung): 21.6 µM | TGI (HOP-18 NSCLC): 43.8 µM | TGI (M19-MEL melanoma): 21 µM | TGI (XF 498 CNS): 31.9 µM
